# Laboratory results: patent US20260364080A1, “PYRAZOLO-PYRIMIDINONE COMPOUNDS FOR USE IN METHODS OF INHIBITING WEE1 A KINASE” (Acrivon Therapeutics, Inc., priority 2023, published 2026)
# How the values were obtained:
# [1] = biological target: T1, Wee1A kinase (CDK1 Tyr15 phosphorylation in ACHN renal cell carcinoma cells) (Homo sapiens, UniProt P30291); assay: High-content imaging of pCdk1 Y15, Wee1A kinase target engagement in ACHN cells; format: cell-based; details: 4 h treatment, nuclear positivity for pCdk1 Y15 vs DMSO control, read-out: CDK1 Tyr15 Phosphorylation EC50
# T1 construct: pCDK1 Tyr15 immunofluorescence read-out
# T1 sequence (P30291 whole entry): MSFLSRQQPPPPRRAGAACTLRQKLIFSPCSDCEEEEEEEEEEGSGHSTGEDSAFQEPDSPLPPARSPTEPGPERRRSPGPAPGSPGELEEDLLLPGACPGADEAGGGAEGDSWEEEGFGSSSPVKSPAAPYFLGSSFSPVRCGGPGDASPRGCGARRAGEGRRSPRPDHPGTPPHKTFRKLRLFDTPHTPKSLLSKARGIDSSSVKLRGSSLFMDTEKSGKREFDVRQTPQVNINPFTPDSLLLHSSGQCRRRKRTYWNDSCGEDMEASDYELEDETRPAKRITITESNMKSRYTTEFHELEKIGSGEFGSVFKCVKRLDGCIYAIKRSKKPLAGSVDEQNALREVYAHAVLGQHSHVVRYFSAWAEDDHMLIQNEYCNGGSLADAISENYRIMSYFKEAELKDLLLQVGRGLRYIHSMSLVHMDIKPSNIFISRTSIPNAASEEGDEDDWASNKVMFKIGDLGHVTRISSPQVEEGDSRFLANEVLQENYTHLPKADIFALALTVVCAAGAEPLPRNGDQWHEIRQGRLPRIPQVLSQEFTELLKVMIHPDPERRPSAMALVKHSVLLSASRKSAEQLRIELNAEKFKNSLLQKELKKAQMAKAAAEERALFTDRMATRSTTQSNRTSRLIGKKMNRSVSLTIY
# In short: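 EC50 values come from the per-well fraction of cells with nuclear pCdk1 Y15 staining, normalised to DMSO control, by automated immunofluorescence imaging. Cells were ACHN renal carcinoma, treated 4 h with compound at 7–5,000 nM or 0.3–200 nM.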
# [2] = biological target: T2, Myt1 kinase (CDK1 Thr14 phosphorylation in ACHN renal cell carcinoma cells) (Homo sapiens, UniProt Q99640); assay: AlphaLISA assay, Myt1 kinase target engagement (phospho-CDK1 Thr14) in ACHN cells; format: cell-based; details: ACHN cells (marked *); 4 h treatment
# T2 construct: pCDK1 Thr14 AlphaLISA read-out
# T2 sequence (Q99640 1-499): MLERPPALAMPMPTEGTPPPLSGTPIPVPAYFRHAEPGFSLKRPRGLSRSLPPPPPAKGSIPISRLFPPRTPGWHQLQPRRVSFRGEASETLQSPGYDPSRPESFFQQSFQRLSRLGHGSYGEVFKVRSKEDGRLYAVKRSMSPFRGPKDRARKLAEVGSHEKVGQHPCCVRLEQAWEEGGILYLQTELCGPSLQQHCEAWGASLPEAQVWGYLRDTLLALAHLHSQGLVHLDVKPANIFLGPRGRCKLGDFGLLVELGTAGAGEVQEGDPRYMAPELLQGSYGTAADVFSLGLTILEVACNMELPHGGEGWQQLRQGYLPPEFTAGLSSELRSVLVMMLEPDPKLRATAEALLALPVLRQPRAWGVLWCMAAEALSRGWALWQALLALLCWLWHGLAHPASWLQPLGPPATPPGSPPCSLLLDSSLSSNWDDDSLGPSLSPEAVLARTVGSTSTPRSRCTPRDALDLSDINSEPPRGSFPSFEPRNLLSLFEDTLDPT
# Method: Each of an ACHN renal cell carcinoma cell line (ATCC) and a DAOY medulloblastoma cell line, and an A427 lung cancer line were cultured in Minimum Essential Medium Eagle supplemented with 10% fetal calf serum (Sigma), 1% Penicillin-Streptomycin and 10 mM HEPES buffer (HyClone). Cell cultures were kept in a humidified incubator at 37 °C and 5% CO2. Cells were routinely tested for Mycoplasma contamination.
# For target engagement assessment of Myt1 kinase inhibition, quantification of Cdk1 phosphorylated on threonine 14 was detected using the AlphaLISA® SureFire® Ultra™ Human Phospho-CDK1 (Thr14) assay (Perkin Elmer). DAOY or ACHN cells were seeded into tissue culture treated 96-well plates (VWR) to a density of 10,000 or 20,000 cells per well respectively. 24 h post seeding cells were treated for 4 h with compounds at concentrations ranging from 7 to 5000 nM. Cells were washed with PBS and lysed in 50 μl AlphaLISA lysis buffer before freezing at −80 C. Ten ul of the lysate was transferred to 384 well plates and incubated with AlphaLISA donor and acceptor beads according to the manufacturer's instructions. Dose response curves and EC50 values were calculated and visualized using GraphPad Prism version 9. Target engagement for Myt1 kinase can also be measured using the same AlphaLISA assay in OVCAR3 cells, an ovarian cancer cell line. NIH:OVCAR-3 (OVCAR3) cells are cultured in RPMI-1640 medium supplemented with 0.01 mg/ml insulin, 20% FBS, 1% Penicillin-Streptomycin and 10 mM HEPES buffer. 14,000 cells per well are seeded into 96 well tissue culture plates in full medium. Twenty-four hours post seeding, cells are treated with compound for 4 hours at concentrations ranging from 0.017 nM to 1000 nM.
# [3] = biological target: T3, recombinant human Wee1A kinase (Homo sapiens, UniProt P30291); assay: Wee1A kinase binding assay (LanthaScreen Eu time-resolved FRET); details: 30 nM tracer 178, 5 nM Wee1A kinase, 2 nM Eu-labeled antibody; 60 minutes at room temperature; read-out: Wee1A kinase Binding IC50
# T3 construct: full length Wee1 kinase was expressed by baculovirus in insect cells; purchased Invitrogen PV3817; host or cells: insect cells (baculovirus)
# T3 sequence (P30291 whole entry): as the sequence (P30291 whole entry) above
# In short: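 Full-length, baculovirus-expressed GST-tagged Wee1A (5 nM) was mixed with 2 nM Eu-anti-GST antibody, 30 nM kinase tracer 178 and compound (1% DMSO). Buffer was 50 mM HEPES pH 7.5, 10 mM MgCl2, 1 mM EGTA, 0.01% Brij-35, incubated 60 min at room temperature. TR-FRET 665/615 nm emission ratios from duplicates were curve-fitted.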
# [4] = biological target: T4, Myt1 kinase (recombinant PMYT-1) (Homo sapiens, UniProt Q99640); assay: Myt1 kinase binding assay (LanthaScreen Eu Kinase Binding Assay); details: 3 nM tracer 178, 2.5 nM PMYT-1, 1 nM Eu-labeled antibody; read-out: Myt1 kinase Binding IC50
# T4 construct: full length PMYT-1 was expressed by baculovirus in insect cells; purchased Invitrogen A30984; host or cells: insect cells (baculovirus)
# T4 sequence (Q99640 1-499): T2 sequence (Q99640 1-499)
# In short: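 Compound binding to Myt1 kinase was assessed using the LanthaScreen Eu Kinase Binding Assay. This europium-based binding format was applied to quantify how strongly each compound bound to the Myt1 enzyme, and the binding affinity was reported for each compound as an IC50 value.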
# [5] = tested on: ACHN cells; assay: Cell Titer Glo viability assay, ACHN cells; format: cell-based; details: Homo sapiens, 144 h, absolute EC50
# In short: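 Cells grown in MEM with 10% FCS were seeded at 500 (A427), 400 (ACHN) or 250 (DAOY) per well and treated the next day with compound at 17 to 10 000 nM. Viability relative to untreated control was read at 144 h by CellTiter-Glo 2.0.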
SMILES,EC50 [1],EC50 [2],IC50 [3],IC50 [4],EC50 [5]
"C=CCn1c(=O)c2cnc(Nc3ccc4c(cnn4CCC)c3)nc2n1-c1cccc(OC2CCN(C)CC2)n1 [Compound 385, 2-allyl-1-[6-(1-methyl-4-piperidyloxy)-2-pyridyl]-6-(1-propyl-1H-indazol-5-ylamino)-1,2-dihydro-3H-1,2,5,7-tetraazainden-3-one]",< 100 nM,< 200 nM,< 10 nM,< 20 nM,≤ 100 nM
C=CCn1c(=O)c2cnc(Nc3ccc4c(cnn4C)c3)nc2n1-c1cccc(OC2CCCN(C)CC2)n1 (centres unmarked) [Compound 361],< 100 nM,200 to 500 nM,< 10 nM,–,≤ 100 nM
"CCn1c(=O)c2cnc(Nc3ccc(-c4cnn(C)c4)cc3)nc2n1-c1cccc(OC2CCN(C)CC2)n1 [Compound 277, 2-ethyl-1-[6-(1-methyl-4-piperidyloxy)-2-pyridyl]-6-[p-(1-methyl-4-pyrazolyl)phenylamino]-1,2-dihydro-3H-1,2,5,7-tetraazainden-3-one]",< 100 nM,< 200 nM,< 10 nM,20 to 100 nM,≤ 100 nM
"C=CCn1c(=O)c2cnc(Nc3ccc4nn(C(C)(C)C)cc4c3)nc2n1-c1cccc(OC2CCN(C)CC2)n1 [Compound 396, 2-allyl-6-((2-(tert-butyl)-2H-indazol-5-yl)amino)-1-(6-((1-methylpiperidin-4-yl)oxy)pyridin-2-yl)-1,2-dihydro-3H-pyrazolo[3,4-d]pyrimidin-3-one]",< 100 nM,< 200 nM,< 10 nM,< 20 nM,≤ 100 nM
"C=CCn1c(=O)c2cnc(Nc3ccc4c(cnn4C)c3)nc2n1-c1ccnc(OC2CCN(C)CC2)n1 [Compound 279, 2-allyl-6-((1-methyl-1H-indazol-5-yl)amino)-1-(2-((1-methylpiperidin-4-yl)oxy)pyrimidin-4-yl)-1,2-dihydro-3H-pyrazolo[3,4-d]pyrimidin-3-one]",< 100 nM,200 to 500 nM,< 10 nM,20 to 100 nM,≤ 100 nM
"C=CCn1c(=O)c2cnc(Nc3ccc4c(c3)ncn4C(C)C)nc2n1-c1cccc(OC2CCN(C)CC2)n1 [Compound 400, 2-allyl-6-((1-isopropyl-1H-benzo[d]imidazol-5-yl)amino)-1-(6-((1-methylpiperidin-4-yl)oxy)pyridin-2-yl)-1,2-dihydro-3H-pyrazolo[3,4-d]pyrimidin-3-one]",< 100 nM,200 to 500 nM,< 10 nM,< 20 nM,≤ 100 nM
"[2H]C([2H])([2H])c1cccc(Nc2ncc3c(=O)n(CC=C)n(-c4cccc(OC5CCN(C)CC5)n4)c3n2)c1 [Compound 333, 2-allyl-6-((3-(methyl-d3)phenyl)amino)-1-(6-((1-methylpiperidin-4-yl)oxy)pyridin-2-yl)-1,2-dihydro-3H-pyrazolo[3,4-d]pyrimidin-3-one]",< 100 nM,200 to 500 nM,< 10 nM,20 to 100 nM,≤ 100 nM
"C=CCn1c(=O)c2cnc(Nc3ccc4c(ccn4C(C)=O)c3)nc2n1-c1cccc(OC2CCN(C)CC2)n1 [Compound 392, 6-((1-acetyl-1H-indol-5-yl)amino)-2-allyl-1-(6-((1-methylpiperidin-4-yl)oxy)pyridin-2-yl)-1,2-dihydro-3H-pyrazolo[3,4-d]pyrimidin-3-one]",< 100 nM,< 200 nM,< 10 nM,20 to 100 nM,≤ 100 nM
"C=CCn1c(=O)c2cnc(Nc3ccc4c(cnn4CCCF)c3)nc2n1-c1cccc(OC2CCNCC2)n1 [Compound 397, 2-allyl-6-((1-(3-fluoropropyl)-1H-indazol-5-yl)amino)-1-(6-(piperidin-4-yloxy)pyridin-2-yl)-1,2-dihydro-3H-pyrazolo[3,4-d]pyrimidin-3-one]",< 100 nM,500 to 1000 nM,< 10 nM,20 to 100 nM,≤ 100 nM
"C=CCn1c(=O)c2cnc(Nc3ccc(Br)cc3)nc2n1-c1cccc(OC2CCN(C)CC2)n1 [Compound 370, 2-allyl-6-(p-bromophenylamino)-1-[6-(1-methyl-4-piperidyloxy)-2-pyridyl]-1,2-dihydro-3H-1,2,5,7-tetraazainden-3-one]",< 100 nM,200 to 500 nM,< 10 nM,< 20 nM,–
"[2H]C([2H])([2H])N1CCC(Oc2cccc(-n3c4nc(Nc5ccc6c(cnn6C(C)C)c5)ncc4c(=O)n3CC=C)n2)CC1 [Compound 354, 2-allyl-6-(1-isopropyl-1H-indazol-5-ylamino)-1-(6-{1-[(^2H3)methyl]-4-piperidyloxy}-2-pyridyl)-1,2-dihydro-3H-1,2,5,7-tetraazainden-3-one]",< 100 nM,< 200 nM,–,< 20 nM,≤ 100 nM
"C=CCn1c(=O)c2cnc(Nc3ccc4[nH]nc(C)c4c3)nc2n1-c1cccc(OC2CCN(C)CC2)n1 [Compound 355, 2-allyl-6-((3-methyl-1H-indazol-5-yl)amino)-1-(6-((1-methylpiperidin-4-yl)oxy)pyridin-2-yl)-1,2-dihydro-3H-pyrazolo[3,4-d]pyrimidin-3-one]",< 100 nM,200 to 500 nM,< 10 nM,< 20 nM,–
"C=CCn1c(=O)c2cnc(Nc3ccc4cnn(C)c4c3)nc2n1-c1cccc(OC2CCN(C)CC2)n1 [Compound 389, 2-allyl-6-((1-methyl-1H-indazol-6-yl)amino)-1-(6-((1-methylpiperidin-4-yl)oxy)pyridin-2-yl)-1,2-dihydro-3H-pyrazolo[3,4-d]pyrimidin-3-one]",< 100 nM,< 200 nM,< 10 nM,20 to 100 nM,–
"C=CCn1c(=O)c2cnc(Nc3ccc(OCCF)nc3)nc2n1-c1cccc(OC2CCN(C)CC2)n1 [Compound 399, 2-allyl-6-((6-(2-fluoroethoxy)pyridin-3-yl)amino)-1-(6-((1-methylpiperidin-4-yl)oxy)pyridin-2-yl)-1,2-dihydro-3H-pyrazolo[3,4-d]pyrimidin-3-one]",< 100 nM,< 200 nM,< 10 nM,< 20 nM,–
"C=CCn1c(=O)c2cnc(Nc3ccc4c(cnn4C(C)C)c3)nc2n1-c1ccnc(OC2CCN(C)CC2)n1 [Compound 401, 2-allyl-6-((1-isopropyl-1H-indazol-5-yl)amino)-1-(2-((1-methylpiperidin-4-yl)oxy)pyrimidin-4-yl)-1,2-dihydro-3H-pyrazolo[3,4-d]pyrimidin-3-one]",< 100 nM,< 200 nM,< 10 nM,< 20 nM,–
